The kinase profiling compilation of Christmann-Franck et al. (2016)

Legend:
Experiment in all cases: KINOMEscan competition binding
Settings in all cases: compound 0.5 µM
ACVR2A (human) = ACVR2A (human) (UniProt P27037)
ACVR2B (human) = ACVR2B (human) (UniProt Q13705)
AKT2 (human) = AKT2 (human) (UniProt P31751)
BMPR1A (human) = BMPR1A (human) (UniProt P36894)
CAMK2D (human) = CAMK2D (human) (UniProt Q13557)
CAMK2G (human) = CAMK2G (human) (UniProt Q13555)
CDK19 (human) = CDK19 (human) (UniProt Q9BWU1)
CSNK1D (human) = CSNK1D (human) (UniProt P48730)
CSNK1D (human), sequence (P48730 whole entry, looked up): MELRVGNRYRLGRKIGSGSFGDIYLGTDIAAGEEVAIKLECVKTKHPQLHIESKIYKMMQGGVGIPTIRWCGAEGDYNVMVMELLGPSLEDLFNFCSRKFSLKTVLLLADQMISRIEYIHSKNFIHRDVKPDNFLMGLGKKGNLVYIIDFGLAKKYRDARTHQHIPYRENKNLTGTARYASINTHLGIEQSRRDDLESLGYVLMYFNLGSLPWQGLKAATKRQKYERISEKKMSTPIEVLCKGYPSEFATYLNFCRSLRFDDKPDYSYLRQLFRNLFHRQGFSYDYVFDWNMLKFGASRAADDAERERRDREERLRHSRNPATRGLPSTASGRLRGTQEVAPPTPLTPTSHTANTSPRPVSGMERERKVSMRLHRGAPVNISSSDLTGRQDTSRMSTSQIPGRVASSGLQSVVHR

CSNK2A2 (human) = CSNK2A2 (human) (UniProt P19784)
DMPK (human) = DMPK (human) (UniProt Q09013)
DMPK (human), sequence (Q09013 whole entry, looked up): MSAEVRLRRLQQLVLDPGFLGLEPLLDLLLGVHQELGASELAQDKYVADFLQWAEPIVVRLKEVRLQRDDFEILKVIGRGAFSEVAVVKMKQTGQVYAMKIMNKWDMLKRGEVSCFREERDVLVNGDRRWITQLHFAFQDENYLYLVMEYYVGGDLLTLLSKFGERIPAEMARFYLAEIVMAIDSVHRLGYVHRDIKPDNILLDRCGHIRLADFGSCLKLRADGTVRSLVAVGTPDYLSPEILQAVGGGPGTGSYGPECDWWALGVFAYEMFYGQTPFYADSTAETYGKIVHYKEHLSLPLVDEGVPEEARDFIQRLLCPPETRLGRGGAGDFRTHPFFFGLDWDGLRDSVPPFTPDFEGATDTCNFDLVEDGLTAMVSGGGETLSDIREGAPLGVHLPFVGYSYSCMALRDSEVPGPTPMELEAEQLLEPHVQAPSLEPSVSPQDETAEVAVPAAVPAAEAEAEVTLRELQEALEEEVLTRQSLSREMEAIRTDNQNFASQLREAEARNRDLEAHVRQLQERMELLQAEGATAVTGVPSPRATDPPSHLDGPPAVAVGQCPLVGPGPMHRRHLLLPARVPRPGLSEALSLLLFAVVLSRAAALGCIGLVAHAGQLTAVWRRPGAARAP

EPHA7 (human) = EPHA7 (human) (UniProt Q15375)
ERN1 (human) = ERN1 (human) (UniProt O75460)
FGR (human) = FGR (human) (UniProt P09769)
GRK1 (human) = GRK1 (human) (UniProt Q15835)
GSK3A (human) = GSK3A (human) (UniProt P49840)
GSK3A (human), sequence (P49840 whole entry, looked up): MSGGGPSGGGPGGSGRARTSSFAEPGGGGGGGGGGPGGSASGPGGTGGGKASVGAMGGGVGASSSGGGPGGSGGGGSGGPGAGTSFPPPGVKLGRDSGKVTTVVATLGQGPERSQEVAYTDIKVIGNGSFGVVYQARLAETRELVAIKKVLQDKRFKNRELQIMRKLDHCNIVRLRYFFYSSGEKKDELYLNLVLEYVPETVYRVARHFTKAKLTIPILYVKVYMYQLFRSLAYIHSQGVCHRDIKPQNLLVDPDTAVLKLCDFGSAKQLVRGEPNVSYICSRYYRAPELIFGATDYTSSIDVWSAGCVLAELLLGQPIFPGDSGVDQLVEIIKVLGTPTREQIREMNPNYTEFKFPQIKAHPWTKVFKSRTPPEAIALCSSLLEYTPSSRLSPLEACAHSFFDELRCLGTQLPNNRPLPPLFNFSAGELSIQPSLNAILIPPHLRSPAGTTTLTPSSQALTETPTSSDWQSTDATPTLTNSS

IGF1R (human) = IGF1R (human) (UniProt P08069)
[1] = target: JAK1 JH2 pseudokinase (human) (UniProt P23458)
KIT (human) = KIT (human) (UniProt P10721)
MAP3K1 (human) = MAP3K1 (human) (UniProt Q13233)
MAP3K9 (human) = MAP3K9 (human) (UniProt P80192)
MAPK4 (human) = MAPK4 (human) (UniProt P31152)
MAPK6 (human) = MAPK6 (human) (UniProt Q16659)
MAPKAPK5 (human) = MAPKAPK5 (human) (UniProt Q8IW41)
NIM1 (human) = NIM1 (human) (UniProt Q8IY84)
PAK6 (human) = PAK6 (human) (UniProt Q9NQU5)
[2] = tested on: PIK3CA (human), P42336 [H1047L]
[3] = tested on: PIK3CA (human), P42336 [H1047Y]
PLK4 (human) = PLK4 (human) (UniProt O00444)
PRKACB (human) = PRKACB (human) (UniProt P22694)
[4] = tested on: RET (human), P07949 [M918T]
ROCK1 (human) = ROCK1 (human) (UniProt Q13464)
RPS6KA1 KD2 (human) = RPS6KA1 KD2 (human) (UniProt Q15418)
RPS6KA4 KD1 (human) = RPS6KA4 KD1 (human) (UniProt O75676)
RPS6KA4 KD2 (human) = RPS6KA4 KD2 (human) (UniProt O75676)
RPS6KA5 KD1 (human) = RPS6KA5 KD1 (human) (UniProt O75582)
SGK110 (human) = SGK110 (human) (UniProt P0C264)
SGK110 (human), sequence (P0C264 whole entry, looked up): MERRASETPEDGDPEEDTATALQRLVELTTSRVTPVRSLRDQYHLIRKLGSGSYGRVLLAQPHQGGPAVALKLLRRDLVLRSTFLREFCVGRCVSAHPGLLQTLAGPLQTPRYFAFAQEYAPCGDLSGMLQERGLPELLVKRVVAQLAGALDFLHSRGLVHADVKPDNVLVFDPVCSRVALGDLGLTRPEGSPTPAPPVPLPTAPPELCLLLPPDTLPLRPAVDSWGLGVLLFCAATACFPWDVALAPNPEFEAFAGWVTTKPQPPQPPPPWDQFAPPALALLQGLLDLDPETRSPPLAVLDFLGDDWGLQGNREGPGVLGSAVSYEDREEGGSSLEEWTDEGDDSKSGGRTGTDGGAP

SIK1 (human) = SIK1 (human) (UniProt P57059)
STK3 (human) = STK3 (human) (UniProt Q13188)
TAOK1 (human) = TAOK1 (human) (UniProt Q7L7X3)
TAOK1 (human), sequence (Q7L7X3 whole entry, looked up): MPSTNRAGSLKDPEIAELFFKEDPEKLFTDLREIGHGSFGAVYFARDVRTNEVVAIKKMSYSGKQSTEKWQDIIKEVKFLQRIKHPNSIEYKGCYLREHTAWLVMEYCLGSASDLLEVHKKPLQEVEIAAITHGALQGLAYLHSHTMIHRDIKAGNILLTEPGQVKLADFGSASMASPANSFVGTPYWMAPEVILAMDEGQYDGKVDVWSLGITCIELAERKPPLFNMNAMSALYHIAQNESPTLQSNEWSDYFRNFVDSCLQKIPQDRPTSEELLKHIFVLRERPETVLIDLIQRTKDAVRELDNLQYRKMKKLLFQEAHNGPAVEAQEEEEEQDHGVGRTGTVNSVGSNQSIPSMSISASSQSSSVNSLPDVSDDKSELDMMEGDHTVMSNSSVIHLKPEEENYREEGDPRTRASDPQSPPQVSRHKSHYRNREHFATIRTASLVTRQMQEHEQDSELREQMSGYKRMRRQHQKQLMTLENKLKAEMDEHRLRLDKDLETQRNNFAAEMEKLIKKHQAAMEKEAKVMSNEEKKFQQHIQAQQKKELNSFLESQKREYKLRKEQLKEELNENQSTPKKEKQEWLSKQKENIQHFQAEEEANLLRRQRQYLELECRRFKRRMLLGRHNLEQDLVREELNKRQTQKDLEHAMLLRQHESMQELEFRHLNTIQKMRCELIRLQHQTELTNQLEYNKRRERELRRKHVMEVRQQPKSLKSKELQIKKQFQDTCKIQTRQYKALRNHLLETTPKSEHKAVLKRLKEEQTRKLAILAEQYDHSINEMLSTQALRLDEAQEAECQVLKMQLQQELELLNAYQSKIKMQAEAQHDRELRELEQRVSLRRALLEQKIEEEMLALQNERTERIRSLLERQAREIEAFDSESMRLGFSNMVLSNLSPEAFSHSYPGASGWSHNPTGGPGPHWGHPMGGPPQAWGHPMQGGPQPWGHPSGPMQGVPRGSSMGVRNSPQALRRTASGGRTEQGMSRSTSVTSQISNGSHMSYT

[5] = target: TYK2 JH1 catalytic (human) (UniProt P29597)
ULK2 (human) = ULK2 (human) (UniProt Q8IYT8)

ACVR2B (human), sequence (Q13705 whole entry, looked up): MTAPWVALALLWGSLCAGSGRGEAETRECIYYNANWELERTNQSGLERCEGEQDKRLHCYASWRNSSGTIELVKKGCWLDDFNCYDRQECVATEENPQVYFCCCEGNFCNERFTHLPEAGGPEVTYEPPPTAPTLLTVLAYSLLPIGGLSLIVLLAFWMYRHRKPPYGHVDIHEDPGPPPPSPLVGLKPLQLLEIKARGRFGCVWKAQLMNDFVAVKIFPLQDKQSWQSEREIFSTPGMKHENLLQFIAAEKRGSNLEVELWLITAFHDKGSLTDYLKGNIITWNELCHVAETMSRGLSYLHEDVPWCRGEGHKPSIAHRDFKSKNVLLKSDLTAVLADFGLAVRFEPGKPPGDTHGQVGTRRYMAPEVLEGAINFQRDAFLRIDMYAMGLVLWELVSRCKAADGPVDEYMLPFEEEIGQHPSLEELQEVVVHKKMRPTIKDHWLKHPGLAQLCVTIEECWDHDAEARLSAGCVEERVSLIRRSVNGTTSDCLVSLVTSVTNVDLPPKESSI
BMPR1A (human), sequence (P36894 whole entry, looked up): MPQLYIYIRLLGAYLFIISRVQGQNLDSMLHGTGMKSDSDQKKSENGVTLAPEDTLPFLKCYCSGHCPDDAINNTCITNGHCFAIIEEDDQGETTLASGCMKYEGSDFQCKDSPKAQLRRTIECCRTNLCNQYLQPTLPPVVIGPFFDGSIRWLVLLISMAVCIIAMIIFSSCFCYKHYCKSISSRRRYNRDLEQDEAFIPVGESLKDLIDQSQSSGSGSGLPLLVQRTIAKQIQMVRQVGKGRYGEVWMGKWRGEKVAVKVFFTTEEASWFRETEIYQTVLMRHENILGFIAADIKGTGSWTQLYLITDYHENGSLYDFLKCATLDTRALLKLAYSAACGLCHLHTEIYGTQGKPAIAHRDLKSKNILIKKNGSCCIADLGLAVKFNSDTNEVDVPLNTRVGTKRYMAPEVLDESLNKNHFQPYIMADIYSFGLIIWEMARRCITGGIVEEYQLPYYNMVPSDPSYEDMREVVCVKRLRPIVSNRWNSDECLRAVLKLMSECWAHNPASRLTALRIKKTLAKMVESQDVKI
CAMK2D (human), sequence (Q13557 whole entry, looked up): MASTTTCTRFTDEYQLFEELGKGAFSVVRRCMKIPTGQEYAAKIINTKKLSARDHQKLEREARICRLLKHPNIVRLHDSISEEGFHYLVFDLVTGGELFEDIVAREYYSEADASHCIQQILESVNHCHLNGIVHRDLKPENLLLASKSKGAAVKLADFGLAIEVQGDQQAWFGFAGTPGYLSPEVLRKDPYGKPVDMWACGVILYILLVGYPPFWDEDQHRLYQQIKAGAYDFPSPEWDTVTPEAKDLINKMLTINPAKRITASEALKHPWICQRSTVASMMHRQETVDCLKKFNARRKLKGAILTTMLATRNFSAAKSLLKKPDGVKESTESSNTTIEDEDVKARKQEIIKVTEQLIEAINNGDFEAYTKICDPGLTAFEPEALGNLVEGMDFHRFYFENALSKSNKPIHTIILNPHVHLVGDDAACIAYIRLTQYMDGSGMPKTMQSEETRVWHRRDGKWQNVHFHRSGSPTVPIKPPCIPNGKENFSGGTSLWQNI
ACVR2A (human), sequence (P27037 whole entry, looked up): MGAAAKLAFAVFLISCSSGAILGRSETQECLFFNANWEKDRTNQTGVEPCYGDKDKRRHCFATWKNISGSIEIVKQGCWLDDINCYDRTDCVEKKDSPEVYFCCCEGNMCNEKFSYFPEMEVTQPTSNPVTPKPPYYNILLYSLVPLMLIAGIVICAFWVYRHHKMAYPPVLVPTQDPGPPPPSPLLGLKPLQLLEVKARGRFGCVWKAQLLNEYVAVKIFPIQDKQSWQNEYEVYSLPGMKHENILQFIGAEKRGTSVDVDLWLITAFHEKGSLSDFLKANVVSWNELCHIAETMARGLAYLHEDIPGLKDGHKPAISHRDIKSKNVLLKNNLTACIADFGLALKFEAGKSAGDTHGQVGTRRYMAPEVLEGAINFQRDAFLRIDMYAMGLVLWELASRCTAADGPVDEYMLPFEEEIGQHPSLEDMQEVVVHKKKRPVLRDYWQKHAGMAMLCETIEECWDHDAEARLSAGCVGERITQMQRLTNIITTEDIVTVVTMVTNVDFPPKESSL

Compound Cn1c2ccccc2c2c3c(c4c5ccccc5n(CCC#N)c4c21)CNC3=O has a kinase still bound, per cent of control (ACVR2A (human)) of 100%, a kinase still bound, per cent of control (ACVR2B (human)) of 97% and a kinase still bound, per cent of control (AKT2 (human)) of 95%. For the same compound, the kinase still bound, per cent of control (BMPR1A (human)) was 73%, the kinase still bound, per cent of control (CAMK2D (human)) was 33% and the kinase still bound, per cent of control (CAMK2G (human)) was 41%. It also gave a kinase still bound, per cent of control (CDK19 (human)) of 91%, a kinase still bound, per cent of control (CSNK1D (human)) of 81% and a kinase still bound, per cent of control (CSNK2A2 (human)) of 65%. It also gave a kinase still bound, per cent of control (DMPK (human)) of 100%, a kinase still bound, per cent of control (EPHA7 (human)) of 81% and a kinase still bound, per cent of control (ERN1 (human)) of 43%. The kinase still bound, per cent of control (FGR (human)) was 84%, the kinase still bound, per cent of control (GRK1 (human)) was 15% and the kinase still bound, per cent of control (GSK3A (human)) was 100%. It also gave a kinase still bound, per cent of control (IGF1R (human)) of 85%, a kinase still bound, per cent of control [1] of 75% and a kinase still bound, per cent of control (KIT (human)) of 81%. It also gave a kinase still bound, per cent of control (MAP3K1 (human)) of 100%, a kinase still bound, per cent of control (MAP3K9 (human)) of 0.65% and a kinase still bound, per cent of control (MAPK4 (human)) of 100%. It also gave a kinase still bound, per cent of control (MAPK6 (human)) of 74%, a kinase still bound, per cent of control (MAPKAPK5 (human)) of 100% and a kinase still bound, per cent of control (NIM1 (human)) of 100%. It also gave a kinase still bound, per cent of control (PAK6 (human)) of 1.4%, a kinase still bound, per cent of control [2] of 43% and a kinase still bound, per cent of control [3] of 100%. It also gave a kinase still bound, per cent of control (PLK4 (human)) of 6.5%, a kinase still bound, per cent of control (PRKACB (human)) of 67% and a kinase still bound, per cent of control [4] of 0.15%. For the same compound, the kinase still bound, per cent of control (ROCK1 (human)) was 22%, the kinase still bound, per cent of control (RPS6KA1 KD2 (human)) was 88% and the kinase still bound, per cent of control (RPS6KA4 KD1 (human)) was 46%. For the same compound, the kinase still bound, per cent of control (RPS6KA4 KD2 (human)) was 100%, the kinase still bound, per cent of control (RPS6KA5 KD1 (human)) was 52% and the kinase still bound, per cent of control (SGK110 (human)) was 13%. The kinase still bound, per cent of control (SIK1 (human)) was 83%, the kinase still bound, per cent of control (STK3 (human)) was 0.8% and the kinase still bound, per cent of control (TAOK1 (human)) was 8%. It also gave a kinase still bound, per cent of control [5] of 0.6% and a kinase still bound, per cent of control (ULK2 (human)) of 86%.
